Laboratory results published in patent publication US6414154B1, “Tetraisoquinoline derivatives as modulators of dopamine D3 receptors” (SmithKline Beecham p.l.c., priority 1998, dated 2002).
Where a name gives a salt, the structure may show the parent alone.

These compounds were tested against T1, human D3 dopamine receptors (Homo sapiens, UniProt P35462) (assay: displacement of [125I] iodosulpride binding to cloned human D3 dopamine receptors expressed in CHO cells). Conditions: 0.1 nM [125I] iodosulpride, CHO cell membranes, 30 min at 37° C.; read-out: pKi at the D3 receptor (converted).
T1 construct: expressed in transfected cells; host or cells: CHO cells (crude cell membranes)
T1 sequence (P35462 whole entry): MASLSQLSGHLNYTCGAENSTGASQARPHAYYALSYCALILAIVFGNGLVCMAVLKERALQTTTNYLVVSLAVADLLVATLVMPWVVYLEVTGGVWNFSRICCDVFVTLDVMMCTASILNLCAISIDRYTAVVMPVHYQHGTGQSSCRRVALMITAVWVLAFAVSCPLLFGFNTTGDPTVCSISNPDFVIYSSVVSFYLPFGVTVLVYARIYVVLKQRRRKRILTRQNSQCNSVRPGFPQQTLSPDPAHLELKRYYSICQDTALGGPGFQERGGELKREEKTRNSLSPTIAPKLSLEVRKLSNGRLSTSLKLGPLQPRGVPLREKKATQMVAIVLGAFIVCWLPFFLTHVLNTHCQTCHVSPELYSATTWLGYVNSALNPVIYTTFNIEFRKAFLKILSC
Method: The inhibition constants (Ki) of test compounds for displacement of [^125I] iodosulpride binding to human D3 dopamine receptors expressed in CHO cells were determined as follows. […] Cultures were grown as monolayers or in suspension in standard cell culture media. Cells were recovered by scraping (from monolayers) or by centrifugation (from suspension cultures), and were washed two or three times by suspension in phosphate buffered saline followed by collection by centrifugation. Cell pellets were stored frozen at −40° C. Crude cell membranes were prepared by homogenisation followed by high-speed centrifugation, and characterisation of cloned receptors achieved by radioligand binding.
Cell pellets were gently thawed at room temperature, and resuspended in about 20 volumes of ice-cold 50 mM Tris salts (pH 7.4@37° C.), 20 mM EDTA, 0.2 M sucrose. The suspension was homogenised using an Ultra-Turrax at full speed for 15 sec. The homogenate was centrifuged at 18,000 r.p.m for 20 min at 4° C. in a Sorvall RC5C centrifuge. The membrane pellet was resuspended in ice-cold 50 mM Tris salts (pH 7.4@37° C.), using an Ultra-Turrax, and recentrifuged at 18,000 r.p.m for 15 min at 4° C. in a Sorvall RC5C. The membranes were washed two more times with ice-cold 50 mM Tris salts (pH 7.4@37° C.). The final pellet was resuspended in 50 mM Tris salts (pH 7.4@37° C.), and the protein content determined using bovine serum albumin as a standard (Bradford, M. M. (1976) Anal. Biochem. 72, 248-254).
Crude cell membranes were incubated with 0.1 nM [^125I] iodosulpride (˜2000 Ci/mmol; Amersham, U. K.), and the test compound in a buffer containing 50 mM Tris salts (pH 7.4@37° C.), 120 mM NaCl, 5 mM KCl, 2 mM CaCl2, 1 mM MgCl2, 0.1% (w/v) bovine serum albumin, in a total volume of 1 ml for 30 min at 37° C. Following incubation, samples were filtered using a Brandel Cell Harvester, and washed three times with ice-cold 50 mM Tris salts (pH 7.4@37° C.), 120 mM NaCl, 5 mM KCl, 2 mM CaCl2, 1 mM MgCl2. The radioactivity on the filters was measured using a Cobra gamma counter (Canberra Packard). Non-specific binding was defined as the radioligand binding remaining after incubation in the presence of 100 μM iodosulpride. For competition curves, 14 concentrations (half-log dilutions) of competing cold drug were used. Competition curves were analysed simultaneously whenever possible using non-linear least-squares fitting procedures, capable of fitting one, two or three site models.
With `N#Cc1ccc2c(c1)CCN(CC[C@H]1CC[C@H](NC(=O)Cc3cccc(C(F)(F)F)c3)CC1)C2` [Example 20, trans-6-Cyano-2-(2-(1-(4-(3-trifluoromethyl)phenylacetamido)-cyclohexyl)ethyl)-1,2,3,4-tetrahydroisoquinoline] the Ki was 3.16 to 12.6 nM. `N#Cc1ccc2c(c1)CCN(CC[C@H]1CC[C@H](NC(=O)Cc3ccc(Br)cc3)CC1)C2` [Example 16, trans-6-Cyano-2-(2-(1-(4-(4-bromo)phenylacetamido)cyclohexyl)-ethyl)-1,2,3,4-tetrahydroisoquinoline] gave a Ki of 3.16 to 12.6 nM. With `N#Cc1cccc(CC(=O)N[C@H]2CC[C@H](CCN3CCc4cc(C#N)ccc4C3)CC2)c1` [Example 6, trans-6-Cyano-2-(2-(1-(4-(3-cyanophenyl)acetamido)cyclohexyl)ethyl)-1,2,3,4-tetrahydroisoquinoline] the Ki was 3.16 to 12.6 nM. `N#Cc1ccc(CC(=O)N[C@H]2CC[C@H](CCN3CCc4cc(C#N)ccc4C3)CC2)cc1` [Example 7, trans-6-Cyano-2-(2-(1-(4-(4-cyanophenyl)acetamido)cyclohexyl)ethyl)-1,2,3,4-tetrahydroisoquinoline] gave a Ki of 3.16 to 12.6 nM. Work on `N#Cc1ccc2c(c1)CCN(CC[C@H]1CC[C@H](NC(=O)Cc3c[nH]c4ccccc34)CC1)C2` [Example 12, trans-6-Cyano-2-(2-(1-(4-(3-indolyl)acetamido)cyclohexyl)ethyl)-1,2,3,4-tetrahydroisoquinoline] yielded a Ki of 3.16 to 12.6 nM. `N#Cc1ccc2c(c1)CCN(CC[C@H]1CC[C@H](NC(=O)Cc3ccc(-c4ccccc4)cc3)CC1)C2` [Example 9, trans-6-Cyano-2-(^2-(1-(4-(4-phenyl)phenylacetamido)cyclohexyl)-ethyl)-1,2,3,4-tetrahydroisoquinoline] showed a Ki of 3.16 to 12.6 nM. For `N#Cc1ccc2c(c1)CCN(CC[C@H]1CC[C@H](NC(=O)Cc3ccccn3)CC1)C2` [Example 15, trans-6-Cyano-2-(2-(1-(4-(2-pyridyl)acetamido)cyclohexyl)ethyl)-1,2,3,4-tetrahydroisoquinoline], the Ki was 3.16 to 12.6 nM. Work on `N#Cc1ccc2c(c1)CCN(CC[C@H]1CC[C@H](NC(=O)Cc3ccnc4ccccc34)CC1)C2` [Example 26, trans-6-Cyano-2-(2-(1-(4-(4-quinolyl)acetamido)-cyclohexyl)ethyl)-1,2,3,4-tetrahydroisoquinoline] yielded a Ki of 3.16 to 12.6 nM. `N#Cc1ccc2c(c1)CCN(CC[C@H]1CC[C@H](NC(=O)COc3ccccc3)CC1)C2` [Example 23, trans-6-Cyano-2-(2-(1-(4-phenoxyacetamido)cyclohexyl)ethyl)-1,2,3,4-tetrahydroisoquinoline] showed a Ki of 3.16 to 12.6 nM. `CC(C)(C)c1ccc(CC(=O)N[C@H]2CC[C@H](CCN3CCc4cc(C#N)ccc4C3)CC2)cc1` [Example 21, trans-6-Cyano-2-(2-(1-(4-(4-t-butyl)phenylacetamido)cyclohexyl)-ethyl)-1,2,3,4-tetrahydroisoquinoline] showed a Ki of 3.16 to 12.6 nM. For `N#Cc1ccc2c(c1)CCN(CC[C@H]1CC[C@H](NC(=O)Cc3cccs3)CC1)C2` [Example 10, trans-6-Cyano-2-(2-(1-(4-(2-thienyl)acetamido)cyclohexyl)ethyl)-1,2,3,4-tetrahydroisoquinoline], the Ki was 3.16 to 12.6 nM. `N#Cc1ccc2c(c1)CCN(CC[C@H]1CC[C@H](NC(=O)Cc3ccccc3F)CC1)C2` [Example 3, trans-6-Cyano-2-(2-(1-(4-(2-fluorophenyl)acetamido)cyclohexyl)ethyl)-1,2,3,4-tetrahydroisoquinoline] showed a Ki of 3.16 to 12.6 nM. For `N#Cc1ccc2c(c1)CCN(CC[C@H]1CC[C@H](NC(=O)Cc3ccc4ccccc4c3)CC1)C2` [Example 2, trans-6-Cyano-2-(2-(1-(4-(2-naphthyl)acetamido)cyclohexyl)ethyl)-1,2,3,4-tetrahydroisoquinoline], the Ki was 3.16 to 12.6 nM. Compound `N#Cc1ccc2c(c1)CCN(CC[C@H]1CC[C@H](NC(=O)Cc3ccsc3)CC1)C2` [Example 11, trans-6-Cyano-2-(2-(1-(4-(3-thienyl)acetamido)cyclohexyl)ethyl)-1,2,3,4-tetrahydroisoquinoline] has a Ki of 3.16 to 12.6 nM. `N#Cc1ccc2c(c1)CCN(CC[C@H]1CC[C@H](NC(=O)Cc3ccc(F)cc3)CC1)C2` [Example 32, trans-6-Cyano-2-(2-(1-(4-(4-fluorophenyl)acetamido)cyclohexyl)ethyl)-1,2,3,4-tetrahydroisoquinoline, Hydrochloride] was tested, and the Ki was 3.16 to 12.6 nM. For `N#Cc1ccc2c(c1)CCN(CC[C@H]1CC[C@H](NC(=O)Cc3ccco3)CC1)C2` [Example 30, trans-6-Cyano-2-(2-(1-(4-(2-furanyl)acetamido)-cyclohexyl)ethyl)-1,2,3,4-tetrahydroisoquinoline], the Ki was 3.16 to 12.6 nM. `N#Cc1ccc2c(c1)CCN(CC[C@H]1CC[C@H](NC(=O)CCc3ccccc3)CC1)C2` [Example 8, trans-6-Cyano-2-(2-(1-(4-(3-phenyl)propionamido)cyclohexyl)ethyl)-1,2,3,4-tetrahydroisoquinoline] showed a Ki of 3.16 to 12.6 nM. Compound `N#Cc1ccc2c(c1)CCN(CC[C@H]1CC[C@H](NC(=O)Cc3ccccc3)CC1)C2` [Example 1, trans-6-Cyano-2-(2-(1-(4-phenylacetamido)cyclohexyl)ethyl)-1,2,3,4-tetrahydroisoquinoline] has a Ki of 3.16 to 12.6 nM. In the case of `N#Cc1ccc2c(c1)CCN(CC[C@H]1CC[C@H](NC(=O)Cc3cc(F)cc(F)c3)CC1)C2` [Example 28, trans-6-Cyano-2-(2-(1-(4-(3,5-difluoro)phenylacetamido)-cyclohexyl)ethyl)-1,2,3,4-tetrahydroisoquinoline], the Ki was 3.16 to 12.6 nM. Work on `N#Cc1ccc2c(c1)CCN(CC[C@H]1CC[C@H](NC(=O)Cc3ccc(F)cc3F)CC1)C2` [Example 19, trans-6-Cyano-2-(2-(1-(4-(2,4-difluoro)phenylacetamido)cyclohexyl)-ethyl)-1,2,3,4-tetrahydroisoquinoline] yielded a Ki of 3.16 to 12.6 nM. `N#Cc1ccc2c(c1)CCN(CC[C@H]1CC[C@H](NC(=O)Cc3ccc(I)cc3)CC1)C2` [Example 17, trans-6-Cyano-2-(2-(1-(4-(4-iodo)phenylacetamido)cyclohexyl)ethyl)-1,2,3,4-tetrahydroisoquinoline] was tested, and the Ki was 3.16 to 12.6 nM. Compound `N#Cc1ccc2c(c1)CCN(CC[C@H]1CC[C@H](NC(=O)Cc3ccc(C(F)(F)F)cc3)CC1)C2` [Example 27, trans-6-Cyano-2-(2-(1-(4-(4-trifluoromethyl)phenylacetamido)-cyclohexyl)ethyl)-1,2,3,4-tetrahydroisoquinoline] has a Ki of 3.16 to 12.6 nM. Compound `N#Cc1ccc2c(c1)CCN(CC[C@H]1CC[C@H](NC(=O)Cc3cccc(F)c3)CC1)C2` [Example 4, trans-6-Cyano-2-(2-(1-(4-(3-fluorophenyl)acetamido)cyclohexyl)ethyl)-1,2,3,4-tetrahydroisoquinoline] has a Ki of 3.16 to 12.6 nM. With `N#Cc1ccc2c(c1)CCN(CC[C@H]1CC[C@H](NC(=O)Cc3ccc(F)c(F)c3)CC1)C2` [Example 14, trans-6-Cyano-2-(2-(1-(4-(3,4-difluoro)phenylacetamido)cyclohexyl)-ethyl)-1,2,3,4-tetrahydroisoquinoline] the Ki was 3.16 to 12.6 nM. Compound `N#Cc1ccc2c(c1)CCN(CC[C@H]1CC[C@H](NC(=O)Cc3cc4ccccc4o3)CC1)C2` [Example 31, trans-6-Cyano-2-(2-(1-(4-(2-benzofuranyl)acetamido)-cyclohexyl)ethyl)-1,2,3,4-tetrahydroisoquinoline] has a Ki of 3.16 to 12.6 nM. With `N#Cc1ccc2c(c1)CCN(CC[C@H]1CC[C@H](NC(=O)Cc3cc4ccccc4s3)CC1)C2` [Example 29, trans-6-Cyano-2-(2-(1-(4-(2-benzothiophenyl)acetamido)-cyclohexyl)ethyl)-1,2,3,4-tetrahydroisoquinoline] the Ki was 3.16 to 12.6 nM. Compound `N#Cc1ccc2c(c1)CCN(CC[C@H]1CC[C@H](NC(=O)Cc3csc4ccccc34)CC1)C2` [Example 22, trans-6-Cyano-2-(2-(1-(4-(3-benzo[b]thienyl)acetarnido)cyclohexyl)-ethyl)-1,2,3,4-tetrahydroisoquinoline] has a Ki of 3.16 to 12.6 nM. `N#Cc1ccc2c(c1)CCN(CC[C@H]1CC[C@H](NC(=O)Cc3cccc(Br)c3)CC1)C2` [Example 18, trans-6-Cyano-2-(2-(1-(4-(3-bromo)phenylacetamido)cyclohexyl)-ethyl)-1,2,3,4-tetrahydroisoquinoline] gave a Ki of 3.16 to 12.6 nM. In the case of `N#Cc1ccc2c(c1)CCN(CC[C@H]1CC[C@H](NC(=O)Cc3cc(F)ccc3F)CC1)C2` [Example 13, trans-6-Cyano-2-(2-(1-(4-(2,5-difluoro)phenylacetamido)cyclohexyl)-ethyl)-1,2,3,4-tetrahydroisoquinoline], the Ki was 3.16 to 12.6 nM.
